From patent US11566007B2, “Ras inhibitors” (Revolution Medicines, Inc., priority 2019, dated 2023)
Read-outs that look alike come from different tables or passages of the source.

What was measured:
NCI-H358 (K-Ras G12C) = test: CellTiter-Glo cell viability assay, NCI-H358; type: cell-based, human; settings: Homo sapiens, NCI-H358, 120 h, NCI-H358, 5-day treatment; class symbols; read-out: Additional H358 Cell Viability assay data (K-Ras G12C, IC50)
Procedure, shortened: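 Viability of K-Ras mutant lines is measured by ATP luminescence after five days of compound treatment. Percent of DMSO control is calculated and dose-response data are fitted with a four-parameter logistic equation.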

K-Ras G12C = K-Ras G12C (Homo sapiens (Human), UniProt P01116+P62937, G12C); test: Ras-Raf (BRAF RBD) disruption / FRET / MOA assay, KRAS G12C; type: biochemical; settings: KRAS G12C; Ras-Raf disruption/FRET/MOA assay; read-out: IC50* KRAS G12C FRET data
Chain of K-Ras G12C (P01116-2 other isoform, or with tags, fused parts or gaps G12C): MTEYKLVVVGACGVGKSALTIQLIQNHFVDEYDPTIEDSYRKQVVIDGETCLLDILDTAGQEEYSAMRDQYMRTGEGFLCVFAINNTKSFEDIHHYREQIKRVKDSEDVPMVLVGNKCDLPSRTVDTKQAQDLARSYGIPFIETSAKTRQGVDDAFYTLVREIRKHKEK
Chain of K-Ras G12C (P62937 whole entry): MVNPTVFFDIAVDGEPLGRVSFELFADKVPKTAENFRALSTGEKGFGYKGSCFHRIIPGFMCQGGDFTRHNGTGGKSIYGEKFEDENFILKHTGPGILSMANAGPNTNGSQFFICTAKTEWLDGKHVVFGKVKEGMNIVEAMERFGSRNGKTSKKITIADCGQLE
Procedure, shortened: (§1)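 Ternary complex formation (Ras–compound–cyclophilin A) displacing BRAF RBD, monitored by TR-FRET. Three hours at 25° C with compound (top 30 μM final), then 1.5 h with the labelled antibodies. Lower ratio than DMSO indicates disruption; IC50 reported.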

K-Ras G13C = K-Ras G13C (Homo sapiens (Human), UniProt P01116+P62937, G13C); test: Ras-Raf (BRAF RBD) disruption / FRET / MOA assay, KRAS G13C; type: biochemical; settings: KRAS G13C; Ras-Raf disruption/FRET/MOA assay; read-out: IC50* KRAS G13C FRET data
Chain of K-Ras G13C (P01116-2 other isoform, or with tags, fused parts or gaps G13C): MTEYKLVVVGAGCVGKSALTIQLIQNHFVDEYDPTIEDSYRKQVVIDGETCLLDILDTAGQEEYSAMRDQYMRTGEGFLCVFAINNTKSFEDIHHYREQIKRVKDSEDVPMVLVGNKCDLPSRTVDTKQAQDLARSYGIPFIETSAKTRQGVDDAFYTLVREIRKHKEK
Chain of K-Ras G13C (P62937 whole entry): as the sequence (P62937 whole entry) above
Procedure, shortened: as §1

KRAS G12S = KRAS G12S (Homo sapiens (Human), UniProt P01116+P62937, G12S); test: Ras-Raf (BRAF RBD) disruption / FRET / MOA assay, KRAS G12S; type: biochemical; settings: Ras-Raf disruption/FRET/MOA assay; class symbols; read-out: KRAS G12S FRET data IC50
Chain of KRAS G12S (P01116-2 other isoform, or with tags, fused parts or gaps G12S): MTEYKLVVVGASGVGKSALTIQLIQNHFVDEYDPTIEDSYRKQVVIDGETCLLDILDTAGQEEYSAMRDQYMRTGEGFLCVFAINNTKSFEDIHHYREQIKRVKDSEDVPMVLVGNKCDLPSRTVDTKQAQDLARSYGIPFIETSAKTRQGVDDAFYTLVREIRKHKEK
Chain of KRAS G12S (P62937 whole entry): as the sequence (P62937 whole entry) above
Procedure, shortened: as §1

KRAS G12D = KRAS G12D (Homo sapiens (Human), UniProt P01116+P62937, G12D); test: Ras-Raf (BRAF RBD) disruption / FRET / MOA assay, KRAS G12D; type: biochemical; settings: Ras-Raf disruption/FRET/MOA assay; class symbols; read-out: KRAS G12D FRET data IC50
Chain of KRAS G12D (P01116-2 other isoform, or with tags, fused parts or gaps G12D): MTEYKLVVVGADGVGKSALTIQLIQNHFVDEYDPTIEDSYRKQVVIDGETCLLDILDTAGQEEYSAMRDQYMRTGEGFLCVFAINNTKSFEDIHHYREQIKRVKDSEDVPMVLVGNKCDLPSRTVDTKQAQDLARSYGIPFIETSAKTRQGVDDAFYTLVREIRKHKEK
Chain of KRAS G12D (P62937 whole entry): as the sequence (P62937 whole entry) above
Procedure, shortened: as §1

KRAS G12V = KRAS G12V (Homo sapiens (Human), UniProt P01116+P62937, G12V); test: Ras-Raf (BRAF RBD) disruption / FRET / MOA assay, KRAS G12V; type: biochemical; settings: read-out: IC50* KRAS G12V FRET data
Chain of KRAS G12V (P01116-2 other isoform, or with tags, fused parts or gaps G12V): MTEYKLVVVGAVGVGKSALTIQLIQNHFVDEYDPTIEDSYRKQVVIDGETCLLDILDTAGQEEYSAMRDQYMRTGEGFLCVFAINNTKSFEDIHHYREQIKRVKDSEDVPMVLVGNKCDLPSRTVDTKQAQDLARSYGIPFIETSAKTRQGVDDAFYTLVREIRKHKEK
Chain of KRAS G12V (P62937 whole entry): as the sequence (P62937 whole entry) above
Procedure, shortened: as §1

KRAS WT = KRAS WT (Homo sapiens (Human), UniProt P01116+P62937); test: Ras-Raf (BRAF RBD) disruption / FRET / MOA assay, KRAS WT; type: biochemical; settings: read-out: IC50* KRAS WT FRET data
Chain of KRAS WT (P01116-2 other isoform, or with tags, fused parts or gaps): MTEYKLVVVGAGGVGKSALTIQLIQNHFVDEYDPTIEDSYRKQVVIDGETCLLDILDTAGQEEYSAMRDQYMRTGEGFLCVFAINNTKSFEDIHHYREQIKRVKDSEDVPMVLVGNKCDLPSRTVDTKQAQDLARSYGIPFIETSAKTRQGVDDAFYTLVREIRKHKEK
Chain of KRAS WT (P62937 whole entry): as the sequence (P62937 whole entry) above
Procedure, shortened: as §1

KRAS G13D = KRAS G13D (Homo sapiens (Human), UniProt P01116+P62937, G13D); test: Ras-Raf (BRAF RBD) disruption / FRET / MOA assay, KRAS G13D; type: biochemical; settings: read-out: IC50* KRAS G13D FRET data
Chain of KRAS G13D (P01116-2 other isoform, or with tags, fused parts or gaps G13D): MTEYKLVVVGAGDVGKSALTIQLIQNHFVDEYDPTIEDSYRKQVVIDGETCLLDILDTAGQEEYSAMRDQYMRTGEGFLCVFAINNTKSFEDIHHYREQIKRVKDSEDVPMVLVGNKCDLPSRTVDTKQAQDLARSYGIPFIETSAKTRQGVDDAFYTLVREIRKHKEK
Chain of KRAS G13D (P62937 whole entry): as the sequence (P62937 whole entry) above
Procedure, shortened: as §1

KRAS Q61H = KRAS Q61H (Homo sapiens (Human), UniProt P01116+P62937, Q61H); test: Ras-Raf (BRAF RBD) disruption / FRET / MOA assay, KRAS Q61H; type: biochemical; settings: Ras-Raf disruption/FRET/MOA assay; class symbols; read-out: KRAS Q61H FRET data IC50
Chain of KRAS Q61H (P01116-2 other isoform, or with tags, fused parts or gaps Q61H): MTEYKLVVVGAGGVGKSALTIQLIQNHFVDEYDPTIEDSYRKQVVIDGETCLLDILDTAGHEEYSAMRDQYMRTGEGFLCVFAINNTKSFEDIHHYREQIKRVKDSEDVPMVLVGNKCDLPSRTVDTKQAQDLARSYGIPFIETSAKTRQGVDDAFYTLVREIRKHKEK
Chain of KRAS Q61H (P62937 whole entry): as the sequence (P62937 whole entry) above
Procedure, shortened: (§2)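 Compounds were tested as a 10-point 3-fold dilution series from 30 μM final for their ability to drive ternary complex formation between nucleotide-loaded Ras and cyclophilin A, displacing the BRAF RBD. After 3 h at 25° C., anti-His Eu-W1024 (10 nM) and anti-GST allophycocyanin (50 nM) were added for 1.5 h. A TR-FRET ratio decrease versus DMSO gave IC50.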

NRAS G12C = NRAS G12C (Homo sapiens (Human), UniProt P01111+P62937, G12C); test: Ras-Raf (BRAF RBD) disruption / FRET / MOA assay, NRAS G12C; type: biochemical; settings: read-out: IC50* NRAS G12C FRET data
Chain of NRAS G12C (P01111 whole entry G12C): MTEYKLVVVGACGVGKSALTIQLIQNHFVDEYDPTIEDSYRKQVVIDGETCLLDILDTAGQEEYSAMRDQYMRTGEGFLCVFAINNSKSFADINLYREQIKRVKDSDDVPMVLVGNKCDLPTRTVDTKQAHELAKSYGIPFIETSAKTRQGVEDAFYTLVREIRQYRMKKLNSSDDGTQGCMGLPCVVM
Chain of NRAS G12C (P62937 whole entry): as the sequence (P62937 whole entry) above
Procedure, shortened: as §1

NRAS Q61R = NRAS Q61R (Homo sapiens (Human), UniProt P01111+P62937, Q61R); test: Ras-Raf (BRAF RBD) disruption / FRET / MOA assay, NRAS Q61R; type: biochemical; settings: NRAS Q61R; Ras-Raf disruption/FRET/MOA assay; read-out: IC50* NRAS Q61R FRET data
Chain of NRAS Q61R (P01111 whole entry Q61R): as the sequence (P01111 whole entry G12C) above, with C12G, Q61R counted along it
Chain of NRAS Q61R (P62937 whole entry): as the sequence (P62937 whole entry) above
Procedure, shortened: as §2

NRAS Q61K = NRAS Q61K (Homo sapiens (Human), UniProt P01111+P62937, Q61K); test: Ras-Raf (BRAF RBD) disruption / FRET / MOA assay, NRAS Q61K; type: biochemical; settings: NRAS Q61K; Ras-Raf disruption/FRET/MOA assay; read-out: IC50* NRAS Q61K FRET data
Chain of NRAS Q61K (P01111 whole entry Q61K): as the sequence (P01111 whole entry G12C) above, with C12G, Q61K counted along it
Chain of NRAS Q61K (P62937 whole entry): as the sequence (P62937 whole entry) above
Procedure, shortened: as §2

NRAS WT = NRAS WT (Homo sapiens (Human), UniProt P01111+P62937); test: Ras-Raf (BRAF RBD) disruption / FRET / MOA assay, NRAS WT; type: biochemical; settings: read-out: IC50* NRAS WT FRET data
Chain of NRAS WT (P01111 whole entry): as the sequence (P01111 whole entry G12C) above, with C12G counted along it
Chain of NRAS WT (P62937 whole entry): as the sequence (P62937 whole entry) above
Procedure, shortened: as §2

[1] = tested on: NCI-H358 cells (K-Ras G12C); test: Potency assay: pERK in NCI-H358 cells; type: cell-based, human; settings: Homo sapiens
Procedure, shortened: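 4 h cpd, 37 °C; 10-pt 3-fold series, 10 mM DMSO top stock, duplicates. Readout pERK: AlphaLISA SureFire Ultra or In-Cell Western (IR-800CW secondary, DRAQ5 DNA stain). IC50, 4-PL fit vs log conc.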

[2] = NCI-H358, H358 KRAS G12C, read-out: pERK EC50

Compound | IC50 (NCI-H358 (K-Ras G12C)) [µM] | IC50 (K-Ras G12C) [µM] | IC50 (K-Ras G13C) [µM] | IC50 (KRAS G12S) [µM] | IC50 (KRAS G12D) [µM] | IC50 (KRAS G12V) [µM] | IC50 (KRAS WT) [µM] | IC50 (KRAS G13D) [µM] | IC50 (KRAS Q61H) [µM] | IC50 (NRAS G12C) [µM] | IC50 (NRAS Q61R) [µM] | IC50 (NRAS Q61K) [µM] | IC50 (NRAS WT) [µM] | EC50 [1, 2] [µM] | EC50 ([1]; NCI-H358, read-out: pERK EC50) [µM]
C=CC(=O)N1CC[C@H](C(=O)N(C)[C@H](C(=O)N[C@H]2Cc3cc(O)cc(c3)-c3ccc4nc(-c5cccnc5[C@H](C)OC)n(c4c3)CC(C)(C)COC(=O)[C@@H]3CCCN(N3)C2=O)C(C)C)C1 [Example A242] | > 1 | 1 to 10 | 1 to 10 | > 10 | > 10 | 1 to 10 | > 10 | > 10 | 1 to 10 | 1 to 10 | > 10 | > 10 | > 10 | – | –
C=CC(=O)N1CC[C@H](C(=O)N(C)[C@H](C(=O)N[C@H]2Cc3cccc(c3)-c3ccc4c(c3)c(c(-c3cnn(C5CCN(C)CC5)c3[C@H](C)OC)n4CC)CC(C)(C)COC(=O)[C@@H]3CCCN(N3)C2=O)C(C)C)C1 [Example A482] | 0.1 to 1 | > 10 | > 10 | > 10 | > 10 | > 10 | > 10 | > 10 | > 10 | > 10 | > 10 | > 10 | > 10 | – | –
C=CC(=O)N(C)C(=O)N(C)[C@H](C(=O)N[C@H]1Cc2nc(cs2)-c2ccc3c(c2)c(c(-c2cccnc2[C@H](C)OC)n3CC)CC(C)(C)COC(=O)[C@@H]2CCCN(N2)C1=O)C(C)C (atropisomer, axis not shown) [Example A355] | 0.1 to 1 | > 10 | > 10 | > 10 | > 10 | > 10 | > 10 | > 10 | > 10 | > 10 | > 10 | > 10 | > 10 | – | –
CC#CC(=O)N1CC[C@H](C(=O)N(C)[C@H](C(=O)N[C@H]2Cc3cccc(c3)-c3ccc4c(c3)c(c(-c3cccnc3[C@H](C)OC)n4C#N)CC(C)(C)COC(=O)[C@@H]3CCCN(N3)C2=O)C(C)C)C1 (atropisomer, axis not shown) [Example A304] | 0.1 to 1 | > 10 | > 10 | > 10 | > 10 | > 10 | > 10 | > 10 | > 10 | > 10 | > 10 | > 10 | > 10 | – | –
C=CC(=O)N1CC[C@H](C(=O)N(C)[C@H](C(=O)N[C@H]2CC3=NN=C(S3)c3ccc4c(c3)c(c(-c3cccnc3[C@H](C)OC)n4CC)CC(C)(C)COC(=O)[C@@H]3CCCN(N3)C2=O)C(C)C)C1 (atropisomer, axis not shown) [Example A248] | > 1 | 1 to 10 | > 10 | > 10 | > 10 | > 10 | > 10 | > 10 | > 10 | 1 to 10 | > 10 | > 10 | > 10 | – | –
C=CC(=O)N1CC[C@H](C(=O)N(C)[C@H](C(=O)NC2C[C@@H]3CN(CCO3)c3ccc4c(c3)c(c(-c3cccnc3[C@H](C)OC)n4CC)CC(C)(C)COC(=O)[C@@H]3CC(Br)CN(N3)C2=O)C(C)C)C1 (stereo partly drawn) [Example A313] | > 1 | 1 to 10 | > 10 | > 10 | > 10 | > 10 | > 10 | > 10 | > 10 | 1 to 10 | > 10 | > 10 | > 10 | – | –
CO[C@@H](C)c1ncccc1-c1c2c3cc(ccc3n1CC(F)(F)F)-c1csc(n1)C[C@H](NC(=O)[C@H](C(C)C)N(C)C(=O)N1C[C@@H]3OCCN(C(=O)/C=C/CN(C)C)[C@@H]3C1)C(=O)N1CCC[C@H](N1)C(=O)OCC(C)(C)C2 (atropisomer, axis not shown) [Example A573] | – | 0.01 to 0.1 | 0.01 to 0.1 | 0.1 to 1 | 1 to 10 | 1 to 10 | 0.1 to 1 | 0.1 to 1 | 0.1 to 1 | 0.01 to 0.1 | 0.1 to 1 | 0.1 to 1 | 0.1 to 1 | < 5 | –
CCn1c(-c2cccnc2[C@H](C)OC)c2c3cc(ccc31)-c1cccc(c1)C[C@H](NC(=O)[C@H](C(C)C)N1CC[C@]3(CCN(C(=O)C#C[C@H]4COCCN4C)C3)C1=O)C(=O)N1CCC[C@H](N1)C(=O)OCC(C)(C)C2 (atropisomer, axis not shown) [Example A592] | – | 0.01 to 0.1 | 1 to 10 | 1 to 10 | > 10 | 1 to 10 | > 10 | > 10 | 1 to 10 | 0.01 to 0.1 | > 10 | > 10 | > 10 | – | < 5
C=CC(=O)N1CCO[C@@H]2CCN(C(=O)N(C)[C@H](C(=O)N[C@H]3Cc4nc(cs4)-c4ccc5c(c4)c(c(-c4cccnc4[C@H](C)OC)n5CC)CC(C)(C)COC(=O)[C@@H]4CCCN(N4)C3=O)C(C)C)C[C@@H]21 (atropisomer, axis not shown) [Example A581] | – | 0.01 to 0.1 | 0.1 to 1 | 0.1 to 1 | 1 to 10 | 0.1 to 1 | 0.1 to 1 | 0.1 to 1 | 0.1 to 1 | 0.01 to 0.1 | 0.1 to 1 | 0.1 to 1 | 0.1 to 1 | < 5 | –
